Assay results as given in patent US20090188860A1, “Use of antimicrobials in water technology” (priority 2006, published 2009).

System: bacteria
Experiment: bacterial presence in permeate and on membrane of a reverse osmosis module in a desalination process
Conditions: cellulose acetate membranes cast with 0.5% and 2.0% by weight of the antimicrobial agent, after a one month period of operation
Method: Cellulose acetate membranes were cast from a dope solution containing about 20% of a cellulose di- and -tri-acetate mixture and 0.5% and 2.0% by weight, respectively, of the antimicrobial agent of formula (3). The solvent is a mixture of dioxane and acetone (2:1; w/w).
Further, the cellulose acetate membranes were used in a reverse osmosis module in a desalination process.
The reverse osmosis module was tested to determine any bacterial presence in the permeate.

For `Oc1cc(Cl)ccc1Oc1ccc(Cl)cc1` [formula (3), 4,4′-dichloro-2-hydroxydiphenylether], the “bacterial presence in the permeate and on the membrane” value was “no bacteria could be found”.
